Assays:
[1] = target: T1, Indoleamine 2,3-dioxygenase 1 (Homo sapiens, UniProt P14902); assay: Inhibition of recombinant human IDO1
[2] = target: T1, Indoleamine 2,3-dioxygenase 1; assay: Inhibition of IDO1 in human HeLa cells; format: cell-based

T1 sequence (P14902 whole entry): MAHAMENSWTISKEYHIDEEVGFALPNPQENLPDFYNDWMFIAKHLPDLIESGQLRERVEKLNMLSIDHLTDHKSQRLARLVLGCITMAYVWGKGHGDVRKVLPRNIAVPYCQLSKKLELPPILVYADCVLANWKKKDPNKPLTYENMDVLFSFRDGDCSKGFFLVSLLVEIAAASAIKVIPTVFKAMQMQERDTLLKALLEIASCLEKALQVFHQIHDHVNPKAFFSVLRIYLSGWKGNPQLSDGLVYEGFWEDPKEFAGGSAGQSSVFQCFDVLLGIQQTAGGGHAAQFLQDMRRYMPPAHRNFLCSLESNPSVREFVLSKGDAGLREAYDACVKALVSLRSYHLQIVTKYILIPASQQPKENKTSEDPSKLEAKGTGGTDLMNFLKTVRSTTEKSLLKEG

Row | IC50 [1] [nM] | IC50 [2] [nM] | SMILES
1 | 2320 | 440 | Cc1ccc(N/C(=N\O)c2ccc(N(CC(C)C)CC(C)C)c(NC(=O)Nc3cncnc3)c2)cc1
2 | 127 |  | CCCNC(=O)Nc1nonc1/C(=N/O)Nc1ccc(F)c(Br)c1
3 | > 3000 | 1340 | CC(C)CN(CC(C)C)c1ccc(/C(=N/O)Nc2ccc(F)c(Br)c2)cc1NC(=O)NC1CCCCC1
4 | 1560 | 1340 | Cc1ccc(NC(=O)Nc2cc(/C(=N/O)Nc3ccc(C)cc3)ccc2N(CC(C)C)CC(C)C)cc1

The next lines start with the molecule.

Row | SMILES | IC50 [1] [nM] | IC50 [2] [nM]
5 | CCCCNC(=O)Nc1cc(/C(=N/O)Nc2ccc(F)c(Br)c2)ccc1N(CC(C)C)CC(C)C | > 3000 | 3110
6 | CC(C)CN(CC(C)C)c1ccc(/C(=N/O)Nc2ccc(F)c(Br)c2)cc1NC(=O)Nc1ccc(Cl)cc1 | 1490 | 440
7 | Cc1ccc(NC(=O)Nc2cc(/C(=N/O)Nc3ccc(F)c(Br)c3)ccc2N(CC(C)C)CC(C)C)cc1 | 2300 | 760
8 | CC(C)CN(CC(C)C)c1ccc(/C(=N/O)Nc2ccc(F)c(Br)c2)cc1NC(=O)Nc1ccc(C(F)(F)F)cc1 | > 3000 | 2090
9 | CC(C)CN(CC(C)C)c1ccc(/C(=N/O)Nc2ccc(F)c(Br)c2)cc1NC(=O)Nc1cncnc1 | > 3000 | 860
10 | CCCNC(=O)Nc1cc(/C(=N/O)Nc2ccc(F)c(Br)c2)ccc1N(CC(C)C)CC(C)C | 2900 | 2610

From ChEMBL document CHEMBL5032524, “Discovery of novel IDO1 inhibitors targeting the protein's apo form through scaffold hopping from holo-IDO1 inhibitor” (Bioorg Med Chem Lett, 2021)
